# From ChEMBL document CHEMBL1201862, “PubChem BioAssay data set” (2004)
# Activity calls are given as the source filed them.
# What was measured:
# [1] = target: T1, Calpain-2 catalytic subunit (Sus scrofa, UniProt P43367); experiment: pig calpain II inhibitor potency, dose response, biochemical, fluorogenic peptide substrate (AID 1420); type: functional
# T1 sequence (P43367 whole entry): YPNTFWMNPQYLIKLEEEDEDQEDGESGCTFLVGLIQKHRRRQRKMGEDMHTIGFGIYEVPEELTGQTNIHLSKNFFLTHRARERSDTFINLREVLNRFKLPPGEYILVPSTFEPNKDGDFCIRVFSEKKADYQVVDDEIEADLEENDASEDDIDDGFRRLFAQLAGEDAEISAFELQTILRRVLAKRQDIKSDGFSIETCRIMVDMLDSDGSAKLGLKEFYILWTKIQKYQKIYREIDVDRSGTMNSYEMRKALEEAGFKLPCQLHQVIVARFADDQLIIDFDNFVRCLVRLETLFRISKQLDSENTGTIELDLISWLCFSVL
# Beta-galactosidase = Beta-galactosidase (Escherichia coli, UniProt Q8VNN2); experiment: Dose response counterscreen for EBI2 assay utilizing the enzyme, b-galactosidase.; type: functional
# Sequence of Beta-galactosidase (Q8VNN2 whole entry): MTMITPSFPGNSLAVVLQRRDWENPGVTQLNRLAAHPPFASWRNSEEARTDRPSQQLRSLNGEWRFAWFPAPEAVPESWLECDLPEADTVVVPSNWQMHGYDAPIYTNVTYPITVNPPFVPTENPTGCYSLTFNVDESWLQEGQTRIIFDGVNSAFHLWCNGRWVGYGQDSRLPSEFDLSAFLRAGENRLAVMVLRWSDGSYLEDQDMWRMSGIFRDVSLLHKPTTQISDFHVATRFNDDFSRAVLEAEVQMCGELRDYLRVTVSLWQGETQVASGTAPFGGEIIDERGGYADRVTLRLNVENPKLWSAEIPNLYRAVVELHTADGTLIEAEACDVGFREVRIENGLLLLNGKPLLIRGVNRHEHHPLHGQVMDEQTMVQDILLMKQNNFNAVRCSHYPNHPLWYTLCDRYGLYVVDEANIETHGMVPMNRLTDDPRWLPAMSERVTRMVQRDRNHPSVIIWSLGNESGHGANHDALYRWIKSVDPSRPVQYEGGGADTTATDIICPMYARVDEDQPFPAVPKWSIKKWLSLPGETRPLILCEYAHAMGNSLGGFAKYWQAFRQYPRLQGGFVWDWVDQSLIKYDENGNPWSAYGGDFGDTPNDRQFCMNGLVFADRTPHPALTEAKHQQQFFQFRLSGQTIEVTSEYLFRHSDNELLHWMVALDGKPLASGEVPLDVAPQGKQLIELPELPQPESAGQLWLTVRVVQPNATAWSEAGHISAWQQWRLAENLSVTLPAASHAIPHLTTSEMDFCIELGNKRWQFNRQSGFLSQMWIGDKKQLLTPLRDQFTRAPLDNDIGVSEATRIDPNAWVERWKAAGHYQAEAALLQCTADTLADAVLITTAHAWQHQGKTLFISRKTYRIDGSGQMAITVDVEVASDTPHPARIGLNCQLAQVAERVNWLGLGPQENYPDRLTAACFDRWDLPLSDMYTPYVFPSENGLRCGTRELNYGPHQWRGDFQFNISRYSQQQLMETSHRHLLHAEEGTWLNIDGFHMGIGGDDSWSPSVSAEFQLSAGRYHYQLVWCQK
# [2] = NIH-3T3 fibroblast cytotoxicity, dose response, cytotoxicity control, cell-based, fluorescence, Alamar Blue, secondary assay (AID 2327); type: functional;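 also: NIH-3T3 mouse fibroblasts cultured with fluconazole at 8 µg/mL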
# [3] = C. albicans growth with fluconazole, confirmation, fluorescence, retest (AID 2467); type: functional, cell-based
# [4] = inhibitors of firefly luciferase expression or activity, dose response, H4 neuroglioma cells, luminescence (AID 1990); type: functional, cell-based
# [5] = Luminescence Cell-Based Dose Response HTS to Identify Inhibitors of 5'UTR Stem-Loop Driven Prion Protein mRNA Translation in H4 Neuroglioblastoma Cells. [Related pubchem assays: 1827 (Project Summary), 1813 (Primary HTS)]; type: functional
# [6] = inhibitors of SNCA 5'UTR-driven reporter translation, confirmation, H4 neuroglioma cells, luminescence (AID 1988); type: functional, cell-based
# Nonstructural protein 1 = Nonstructural protein 1 (Influenza A virus, UniProt Q194T2); type: functional, Influenza A virus (A/California/07/2009(H1N1))
# Sequence of Nonstructural protein 1 (Q194T2 whole entry): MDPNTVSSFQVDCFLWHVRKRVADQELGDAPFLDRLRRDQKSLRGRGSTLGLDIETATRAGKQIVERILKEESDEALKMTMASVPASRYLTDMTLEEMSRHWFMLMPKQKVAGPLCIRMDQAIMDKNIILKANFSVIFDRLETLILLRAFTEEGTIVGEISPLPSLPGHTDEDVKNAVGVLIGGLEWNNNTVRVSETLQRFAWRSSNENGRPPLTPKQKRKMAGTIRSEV
# INS1 = experiment: beta cell apoptosis inhibitors, cytokine rescue, dose response, luminescence, retest (AID 449756); type: functional, cell-based; details: Rattus norvegicus;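 also: cell death triggered by IL-1 beta plus TNF-alpha plus IFN-gamma mixture; protective hits raise ATP signal compared with cytokine alone wells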
# [7] = Shn3 3'UTR reporter inhibitors, dose response, cell-based, Clone20 osteoblasts, firefly luciferase, cherry-picked (AID 624132); type: functional;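 also: firefly luciferase luminescence from reporter carrying the Shn3 3'UTR in osteoblasts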
# [8] = HepG2 cell cytotoxicity, dose response, cytotoxicity control for Shn3 inhibitor project, CellTiter-Glo, cherry-picked (AID 624134); type: functional, cell-based
# [9] = control 3'UTR Renilla luciferase suppression, dose response, counter-screen for Shn3 inhibitor project, cell-based, Clone20-Shn3RL, cherry-picked (AID 624133); type: functional
# [10] = target: Heat shock protein HSP 90-alpha (Homo sapiens, UniProt P07900); type: functional, organism-based
# [11] = Luminescence Cell-Based Dose Retest to Confirm Inhibitors of Cancer Stem Cells. [Related pubchem assays (depositor defined):AID2717, AID2721]; type: functional; details: Homo sapiens
# [12] = target: T2, Ubiquitin-conjugating enzyme E2 N (Homo sapiens, UniProt P61088); type: functional;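 also: Dose-response confirmation in a TR-FRET assay detecting UBC13-driven polyubiquitin chain formation, inhibition measured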
# T2 sequence (P61088 whole entry): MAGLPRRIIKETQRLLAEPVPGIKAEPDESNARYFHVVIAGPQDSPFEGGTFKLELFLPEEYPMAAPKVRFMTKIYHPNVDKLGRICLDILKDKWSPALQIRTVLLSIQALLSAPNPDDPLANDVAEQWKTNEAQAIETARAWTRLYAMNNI
# [13] = inhibitors of HIV Env-driven cell fusion, dose response, cherry-pick (AID 652057); type: functional, cell-based
# [14] = ZM109 Env clade C HIV-1 fusion inhibitors, dose response, HeLa effector, CEM target cells, luciferase, cherry-pick (AID 652058); type: functional, cell-based
# [15] = inhibitors of clade B AD8 Env fusion, dose response, cell-based, cherry-pick (AID 652062); type: functional;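 also: luciferase signal from cell-cell fusion driven by HIV-1 clade B AD8 Env; potency is for inhibitors of fusion seen as a drop in luminescence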
# Paired box protein Pax-8 = Paired box protein Pax-8 (Homo sapiens, UniProt Q06710); experiment: inhibitors of PAX8-driven TPO luciferase reporter, dose response, RMG-I cells, cherry-pick (AID 687027); type: functional, cell-based;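 also: luciferase reporter driven by Pax8 target thyroperoxidase promoter measured by SteadyGlo luminescence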
# Sequence of Paired box protein Pax-8 (Q06710 whole entry): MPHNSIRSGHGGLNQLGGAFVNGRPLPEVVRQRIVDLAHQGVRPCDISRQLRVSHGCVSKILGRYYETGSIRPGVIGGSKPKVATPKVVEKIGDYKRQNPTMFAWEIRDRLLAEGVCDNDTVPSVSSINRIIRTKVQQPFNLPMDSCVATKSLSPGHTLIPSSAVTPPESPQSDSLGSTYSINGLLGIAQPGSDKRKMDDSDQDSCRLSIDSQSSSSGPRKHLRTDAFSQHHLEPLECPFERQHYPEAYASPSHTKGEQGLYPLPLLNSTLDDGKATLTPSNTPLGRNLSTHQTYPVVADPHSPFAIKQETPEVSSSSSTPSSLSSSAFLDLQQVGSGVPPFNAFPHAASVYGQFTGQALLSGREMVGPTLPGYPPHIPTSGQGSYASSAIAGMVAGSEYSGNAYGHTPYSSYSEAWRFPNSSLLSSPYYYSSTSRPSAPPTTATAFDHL
# cells [16] = type: functional, cell-based
# [17] = inhibitors of intracellular T. cruzi replication, confirmation, NIH3T3 host cells, beta-gal luminescence (AID 2044); type: functional, cell-based;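 also: intracellular parasites grown in NIH/3T3 mouse fibroblasts as host cells; luminescent beta-galactosidase reporter signal from transgenic T. cruzi replicating inside host cells; inhibitors lower the luminescence signal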
# cells [18] = type: functional, cell-based; remark: listed apart in the source
# [19] = cytotoxicity toward NIH3T3 fibroblasts, dose response, counter-screen, cell-based, ATP luminescence, mouse fibroblasts (AID 2010); type: functional;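 also: cells exposed to compound for about 90 hours before reading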
# [20] = target: T3, Replicative DNA helicase DnaB (Mycobacterium tuberculosis, UniProt P9WMR3); experiment: DnaB intein splicing inhibitors, dose response, biochemical, cell-free fluorescence (AID 449749); type: functional
# T3 sequence (P9WMR3 whole entry): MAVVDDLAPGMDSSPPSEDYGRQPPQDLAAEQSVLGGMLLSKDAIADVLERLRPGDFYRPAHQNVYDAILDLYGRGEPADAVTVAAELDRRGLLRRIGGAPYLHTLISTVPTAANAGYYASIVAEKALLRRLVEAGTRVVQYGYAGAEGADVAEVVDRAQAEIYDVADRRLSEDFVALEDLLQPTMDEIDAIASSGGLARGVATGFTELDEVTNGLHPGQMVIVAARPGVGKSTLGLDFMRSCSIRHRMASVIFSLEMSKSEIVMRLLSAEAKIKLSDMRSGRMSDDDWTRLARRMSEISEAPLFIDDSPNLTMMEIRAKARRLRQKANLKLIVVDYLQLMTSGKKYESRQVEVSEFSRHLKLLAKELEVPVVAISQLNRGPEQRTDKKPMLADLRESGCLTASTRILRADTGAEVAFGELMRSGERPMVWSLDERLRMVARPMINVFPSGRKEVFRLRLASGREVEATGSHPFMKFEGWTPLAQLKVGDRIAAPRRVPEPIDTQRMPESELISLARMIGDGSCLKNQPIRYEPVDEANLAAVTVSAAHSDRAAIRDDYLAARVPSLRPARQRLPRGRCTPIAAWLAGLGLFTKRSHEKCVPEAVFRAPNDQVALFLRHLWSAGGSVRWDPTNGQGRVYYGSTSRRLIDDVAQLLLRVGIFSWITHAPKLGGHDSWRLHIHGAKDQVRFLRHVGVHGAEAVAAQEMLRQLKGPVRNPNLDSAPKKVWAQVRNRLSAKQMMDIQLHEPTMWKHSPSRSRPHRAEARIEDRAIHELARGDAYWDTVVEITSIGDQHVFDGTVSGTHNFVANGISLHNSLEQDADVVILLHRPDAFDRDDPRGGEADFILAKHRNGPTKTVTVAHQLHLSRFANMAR
# Protein RecA = target: T4, Protein RecA (Mycobacterium tuberculosis, UniProt P9WHJ3); experiment: Fluorescence Cell-Free Homogeneous Dose Retest to Identify Inhibitors of RecA-Intein Splicing Activity. [Related pubchem assays (depositor defined):AID2097, AID2223, AID489010, AID492950]; type: functional
# T4 sequence (P9WHJ3 whole entry): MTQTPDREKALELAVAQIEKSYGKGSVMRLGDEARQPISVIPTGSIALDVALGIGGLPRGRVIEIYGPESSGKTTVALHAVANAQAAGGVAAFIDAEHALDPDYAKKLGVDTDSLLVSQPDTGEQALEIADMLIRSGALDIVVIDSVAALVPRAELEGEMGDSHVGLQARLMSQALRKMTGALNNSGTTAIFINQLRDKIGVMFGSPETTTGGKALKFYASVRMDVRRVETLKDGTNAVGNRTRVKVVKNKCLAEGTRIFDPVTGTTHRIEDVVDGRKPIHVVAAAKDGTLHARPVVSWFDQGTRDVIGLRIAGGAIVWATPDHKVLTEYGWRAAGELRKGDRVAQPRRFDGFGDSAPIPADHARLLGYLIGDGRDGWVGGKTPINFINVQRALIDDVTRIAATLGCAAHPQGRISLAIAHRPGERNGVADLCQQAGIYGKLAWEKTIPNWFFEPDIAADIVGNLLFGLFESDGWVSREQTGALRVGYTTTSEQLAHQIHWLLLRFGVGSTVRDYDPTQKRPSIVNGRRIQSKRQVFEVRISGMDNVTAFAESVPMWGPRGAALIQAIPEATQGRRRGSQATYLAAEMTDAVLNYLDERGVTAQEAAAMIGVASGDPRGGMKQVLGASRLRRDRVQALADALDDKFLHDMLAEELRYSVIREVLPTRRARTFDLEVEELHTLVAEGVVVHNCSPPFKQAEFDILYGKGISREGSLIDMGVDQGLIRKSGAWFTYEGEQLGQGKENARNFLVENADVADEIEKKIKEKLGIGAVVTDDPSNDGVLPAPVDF
structure (smiles),measurement,setting,value
O=C(Cn1nc(-c2ccc3c(c2)OCCO3)ccc1=O)Nc1cccc(NC(=O)c2ccccn2)c1,IC50,[1],> 50 µM (not active)
O=C(/C=C/c1ccccc1)N1CCN(c2c(Cl)cccc2[N+](=O)[O-])CC1,IC50,Beta-galactosidase,> 80 µM (inactive)
O=C(COc1ccc(Cl)cc1)N1CCN(C(=O)c2cccc(F)c2)CC1,IC50,Beta-galactosidase,> 80 µM (inactive)
Cc1cccc(NC(=O)NCc2ccc3[nH]c(C)cc3c2)c1,IC50,[1],7.26 µM (not active)
Cc1ccc2oc(=O)c3cnn(CC(=O)N(CCC(C)C)Cc4ccco4)c3c2c1,IC50,Beta-galactosidase,> 80 µM (inactive)
O=S(=O)(Cc1ccc(Cl)cc1)N1CCN(Cc2ccccc2)CC1,EC50,[2],> 160 µM (inactive)
same,EC50,[3],> 38 µM (not active)
COc1ccccc1N1CCN(C(=O)c2cc3c(C)nc4ccccc4c3o2)CC1,IC50,Beta-galactosidase,> 80 µM (inactive)
CCCC(=O)n1nc(NCc2ccc(OC)cc2)nc1NCc1ccc(OC)cc1,IC50,[1],< 0.4 µM (not active)
OCc1ccc(O)c2ncccc12,EC50,[2],> 150 µM (inactive)
same,EC50,[4],0.712 µM (active)
same,EC50,[5],2.95 µM (active)
same,EC50,[6],1.2 µM (active)
same,EC50,[3],> 38 µM (not active)
same,IC50,Nonstructural protein 1,10.5 µM (active)
same,AC50,INS1,3.37 µM (active)
same,AC50,[7],1.66 µM (active)
same,AC50,[8],5.94 µM (active)
same,AC50,[9],2.24 µM (active)
CCN(CC)C1CC(=O)N(c2cccc(Cl)c2)C1=O (configuration not stated),AC50,[10],2.21 µM (active)
CC1CC1C(=O)OCC(=O)Nc1ccccc1Oc1ccccc1 (configuration not stated),IC50,[1],33.3 µM (not active)
O=C(COc1ccc(Br)cc1)N1CCN(S(=O)(=O)/C=C/c2ccccc2)CC1,IC50,Beta-galactosidase,> 80 µM (inactive)
Cc1ccc(S(=O)(=O)N(C(=O)c2ccncc2)c2ccc(OC(=O)c3ccncc3)cc2)cc1,AC50,[10],1.23 µM (active)
CC1CCN(c2nc3ccccc3n2CC(=O)c2ccccc2)CC1,IC50,[1],> 50 µM (not active)
Cc1cccc(N2CCN(C(=O)c3cc4c(=O)[nH]c5ccccc5c4n3C)CC2)c1C,IC50,Beta-galactosidase,> 80 µM (inactive)
COc1ccc(NC(=O)c2c(N)no[n+]2[O-])cc1,EC50,[2],1.6 µM (active)
same,EC50,[3],2.19 µM (active)
same,AC50,[11],0.754 µM (active)
COc1ccc2c(n1)Sc1nc3ccccc3nc1N2,AC50,[10],1.96 µM (active)
CCCCCCSc1nnc(-c2cnn(-c3ccccc3)c2-n2cccc2)n1C,IC50,[1],7.59 µM (not active)
COc1ccc(-c2cc(C3CCN(c4cc(Cl)nc(N)n4)CC3)[nH]n2)cc1,IC50,[12],> 20 µM (inactive)
same,AC50,[13],42.9 µM (active)
same,AC50,[14],0.295 µM (active)
same,AC50,[15],26.4 µM (active)
CCOC(=O)C1CCN(C(=O)/C=C/c2ccc(OC)cc2)CC1,IC50,Beta-galactosidase,> 80 µM (inactive)
N#C/C(=C/c1ccc(O)cc1)C(=O)NCc1ccc(Cl)cc1,AC50,[10],3.08 µM (active)
NC(=O)C1CCN(C2CC(=O)N(c3ccc(F)c(Cl)c3)C2=O)CC1 (configuration not stated),AC50,[10],3.04 µM (active)
CNC(=S)N1N=C(c2ccc(OC)cc2)CC1c1ccc(N(C)C)cc1 (configuration not stated),IC50,Beta-galactosidase,> 80 µM (inactive)
COCCNC(=O)CCCn1c(=O)c2cc(OC)c(OC)cc2n(CC(=O)NCCC2=CCCCC2)c1=O,EC50,[2],> 160 µM (inactive)
same,EC50,[3],3.16 µM (active)
CC(=NNC(=S)N1CCC1)c1ccccn1,IC50,Nonstructural protein 1,2.09 µM (active)
same,AC50,[10],1.58 µM (active)
same,AC50,Paired box protein Pax-8,< 0.26 µM (active)
CC(C)=CCc1c(O)ccc(C2COc3c(CC=C(C)C)c(O)cc(O)c3C2=O)c1O (configuration not stated),AC50,[10],15.9 µM (active)
O=C1CCN(Cc2ccccc2)C=C1c1ccc(Br)cc1,IC50,Beta-galactosidase,> 80 µM (inactive)
O=c1c2c3c(sc2ncn1/N=C/c1ccc([N+](=O)[O-])o1)CCCC3,AC50,[11],4.45 µM (active)
same,AC50,[10],0.637 µM (active)
Cc1nc2ccccc2nc1N/N=C/c1ccc(O)cc1O,EC50,cells [16],12.1 µM (active)
same,EC50,[17],2.05 µM (active)
same,EC50,cells [18],> 350 µM (not active)
same,EC50,[19],8.31 µM (active)
same,IC50,Nonstructural protein 1,14.1 µM (active)
same,AC50,[20],> 380 µM (inactive)
same,EC50,Protein RecA,> 380 µM (inconclusive)
same,AC50,INS1,0.882 µM (active)
COc1ccc(OC)c(NC(=O)C(=O)/C=C(\O)c2cc(OC)ccc2OC)c1,EC50,[2],29.9 µM (inconclusive)
same,EC50,[3],> 38 µM (not active)
